According to publication PMC6985936, “2-Amino-2,3-dihydro-1H-indene-5-carboxamide-Based Discoidin Domain Receptor 1 (DDR1) Inhibitors: Design, Synthesis, and in Vivo Antipancreatic Cancer Efficacy” (Journal of Medicinal Chemistry, 2019):
Like-named read-outs stand apart in the source and are kept apart here.

Assays:
[1] = SD rats
Procedure: (§1) All animal studies were performed according to the protocols and guidelines of the institutional care and use committee. The 4–6 week old male Sprague-Dawley rats were purchased from the Shanghai Laboratory Animal Research Center (Shanghai, China). All of the procedures related to animal handling, care, and treatment in this article were performed in compliance with Agreement of the Ethics Committee on Laboratory Animal Care and the Guidelines for the Care and Use of Laboratory Animals in Shanghai, China. […] The compound was dissolved in the solution containing 2% DMSO, 4% ethanol, 4% castor oil, and 90% ddH2O. Pharmacokinetic properties of SD rats (male) were determined following intravenous (iv) and oral administration. Animals were randomly distributed into two experimental groups (n = 3). The oral groups were given 25 mg/kg by gastric gavage. The other group was dosed by injection into the tail vein (5 mg/kg). […] Whole blood samples were collected in heparinized tubes. The plasma fraction was immediately separated by centrifugation (8000 rpm, 6 min, 4 °C) and stored at −20 °C until liquid chromatography–mass spectrometry analysis. […] The pharmacokinetics parameters were calculated by analyzing the compound concentration in plasma samples using the pharmacokinetic software DAS.2.0.

in vivo = details: male, Sprague-Dawley, rat, plasma, po, 25 mg/kg
Procedure: as §1

Question: Which T1/2 ([1]; iv 5 mg/kg) does the source give for `Cc1cn(-c2cc(NC(=O)c3ccc4c(c3)C[C@H](N(C)c3cncnc3)C4)cc(C(F)(F)F)c2)cn1` [7f, (R)-2-(Methyl(pyrimidin-5-yl)amino)-N-(3-(4-methyl-1H-imidazol-1-yl)-5-(trifluoromethyl)phenyl)-2,3-dihydro-1H-indene-5-carboxamide] here?
Answer: 0.9 h

Question: What about the Tmax ([1]; iv 5 mg/kg) of the same compound?
Answer: 0.083 h

Question: What about the T1/2 ([1]; po 25 mg/kg) of the same compound?
Answer: 1.7 h

Question: And the Tmax ([1]; po 25 mg/kg)?
Answer: 4.0 h

Question: And the “AUC(0–∞)” value ([1]; po 25 mg/kg, 25 mg/kg)?
Answer: 80 535 μg/(L h)

Question: And the bioavailability (in vivo)?
Answer: 89.9%
